Results as given in US12227520B2 (priority 2019, dated 2025).
Where two headings read alike, the source gives them in different places.

Assays:
[1] = Cytotoxicity assay in MT-4 cells; type: cell-based, human; details: human, uninfected MT-4 cells, 5 days incubation; read-out: CC50
How it was run: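 Infected MT-4 cells (HIV-1 IIIB, fresh 1:250 dilution of concentrated stock) or mock-infected cells exposed to compounds for 5 days at 37 °C. Viability by CellTiter-Glo luminescence; 5 μM AZT positive control, no-drug negative control. Uninfected cells used for cytotoxicity, with 10 μM puromycin as base-level cytotoxicity control.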

[2] = tested on: HIV-1 (IIIB); test: Antiviral assay in MT-4 cells (HIV MT-4 antiviral assay); type: cell-based; details: Human immunodeficiency virus 1, IIIB, MT4, 120 h, HIV-1 (IIIB) in MT-4 cells, 5 days incubation; read-out: EC50
How it was run: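 MT-4 cells infected with HIV-1 IIIB (1:250 diluted stock) and exposed to 1:3 serially diluted compound in RPMI with 10% FBS. Viability read by CellTiter-Glo luminescence after 5 days at 37° C; mock-infected cells and 5 μM AZT as controls.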

[3] = tested on: pLai RLuc reporter virus; test: microbe, parasite or virus in culture; type: cell-based, HIV; details: Human immunodeficiency virus 1, 72 h
How it was run: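 MT-4 cells pre-infected 2 h at 37 °C with pLai RLuc virus, then exposed to 1:3 serial dilutions of compound in RPMI/10% FBS with or without 50% human serum for 72 h at 37 °C. Renilla luminescence read-out; serum shift = EC50(HS/CCM)/EC50(CCM).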

[4] = read-out: Antiviral Serum Shift RLuc 50% HS, HS/CCM (RPMI media, 10% FBS, 50% HS, 1% P/S), 72-h incubation
[5] = read-out: Antiviral Serum Shift RLuc CCM, CCM (RPMI media, 10% FBS, 1% P/S), 72-h incubation

Row | SMILES | CC50 at 5 days [1] | EC50 [2] | EC50 [3, 4] | EC50 [3, 5]
1 | O=C(NCc1ccc(F)c(F)c1F)c1cn2c(c(O)c1=O)C(=O)N1CCCC[C@H]2C1 [Example 161, (7S)-12-hydroxy-1,11-dioxo-N-(2,3,4-trifluorobenzyl)-1,4,5,6,7,11-hexahydro-3H-2,7-methanopyrido[1,2-a][1,4]diazonine-10-carboxamide] | 4630 nM | 2.1 nM | 1.01 nM | 0.3 nM
2 | C[C@H]1C=CC[C@H]2CN1C(=O)c1c(O)c(=O)c(C(=O)NCc3ccc(F)cc3F)cn12 [Example 149, (3S,7S)—N-(2,4-difluorobenzyl)-12-hydroxy-3-methyl-1,11-dioxo-1,6,7,11-tetrahydro-3H-2,7-methanopyrido[1,2-a][1,4]diazonine-10-carboxamide] | 10000 nM | 1.59 nM | 2.97 nM | 0.255 nM
3 | C[C@]12CCCCN(C1)C(=O)c1c(O)c(=O)c(C(=O)NCc3c(F)cc(F)cc3F)cn12 [Example 59-1, (7S)-12-hydroxy-7-methyl-1,11-dioxo-N-(2,4,6-trifluorobenzyl)-1,4,5,6,7,11-hexahydro-3H-2,7-methanopyrido[1,2-a][1,4]diazonine-10-carboxamide] | 15000 nM | 1.53 nM | 26.4 nM | 0.361 nM
4 | O=C(NCc1c(F)cc(F)cc1F)c1cn2c(c(O)c1=O)C(=O)N1CCC[C@@H](O)C[C@H]2C1 [Example 82-2, (6R,8S)-6,13-dihydroxy-1,12-dioxo-N-(2,4,6-trifluorobenzyl)-1,3,4,5,6,7,8,12-octahydro-2,8-methanopyrido[1,2-a][1,4]diazecine-11-carboxamide] | > 50000 nM | 9.57 nM | 3 nM | 2.09 nM
5 | O=C(NCc1c(F)cc(F)cc1F)c1cn2c(c(O)c1=O)C(=O)N1CCCC[C@@]2(CF)C1 [Example 163-1, (7S)—N-(2,4,6-trifluorobenzyl)-7-(fluoromethyl)-12-hydroxy-1,11-dioxo-1,4,5,6,7,11-hexahydro-3H-2,7-methanopyrido[1,2-a][1,4]diazonine-10-carboxamide] | 20200 nM | 1.26 nM | 11.9 nM | 0.0674 nM
6 | CC[C@]1(O)CCCN2C[C@H]1n1cc(C(=O)NCc3c(F)cc(F)cc3F)c(=O)c(O)c1C2=O [Example 93] | > 40400 nM | 2.24 nM | 1.55 nM | 0.462 nM
7 | O=C(NCc1c(F)cc(F)cc1F)c1cn2c(c(O)c1=O)C(=O)N1CCc3ccccc3[C@H]2C1 (single isomer, unassigned) [Example 63-1] | 13800 nM | 1.7 nM | 2.16 nM | 0.461 nM
8 | C[C@@H]1C=C[C@H](C)N2C[C@H]1n1cc(C(=O)NCc3ccc(F)cc3F)c(=O)c(O)c1C2=O [Example 177, (3S,6R,7S)—N-(2,4-difluorobenzyl)-12-hydroxy-3,6-dimethyl-1,11-dioxo-1,6,7,11-tetrahydro-3H-2,7-methanopyrido[1,2-a][1,4]diazonine-10-carboxamide] | 8540 nM | 0.915 nM | 11.1 nM | 0.294 nM
9 | O=C(NCc1ccc(F)cc1F)c1cn2c(c(O)c1=O)C(=O)N1C[C@@H](F)CC[C@@H]2C1 (single isomer, unassigned) [Example 53-3] | 11200 nM | 1.94 nM | 75.2 nM | 0.223 nM
10 | O=C(NCc1c(F)cc(F)cc1F)c1cn2c(c(O)c1=O)C(=O)N1CC[C@H](F)CC[C@H]2C1 [Example 81-1, (5R,8S)-5-fluoro-13-hydroxy-1,12-dioxo-N-(2,4,6-trifluorobenzyl)-1,3,4,5,6,7,8,12-octahydro-2,8-methanopyrido[1,2-a][1,4]diazecine-11-carboxamide] | 23900 nM | 1.96 nM | 0.649 nM | 0.466 nM
11 | O=C(NCc1c(F)cc(F)cc1F)c1cn2c(c(O)c1=O)C(=O)N1CCc3ccc(Br)cc3[C@@H]2C1 (single isomer, unassigned) [Example 122-2] | 4770 nM | 14.4 nM | 298 nM | 3.77 nM
12 | C[C@@H]1[C@H]2CCCCN1C(=O)c1c(O)c(=O)c(C(=O)NCc3ccc(F)cc3F)cn12 [Example 7, (7R,13R)—N-(2,4-difluorobenzyl)-12-hydroxy-13-methyl-1,11-dioxo-1,4,5,6,7,11-hexahydro-3H-2,7-methanopyrido[1,2-a][1,4]diazonine-10-carboxamide] | 8810 nM | 1.4 nM | 1.47 nM | 0.28 nM
13 | C[C@@H]1CCC[C@H]2CN1C(=O)c1c(O)c(=O)c(C(=O)NCc3ccc(F)cc3F)cn12 [Example 52-1, (3R, 7S)—N-(2,4-difluorobenzyl)-12-hydroxy-3-methyl-1,11-dioxo-1,4,5,6,7,11-hexahydro-3H-2,7-methanopyrido[1,2-a][1,4]diazonine-10-carboxamide] | 13100 nM | 2.15 nM | 6.18 nM | 0.245 nM
14 | O=C(NCc1c(F)cc(F)cc1F)c1cn2c(c(O)c1=O)C(=O)N1CCOC[C@H]2C1 [Example 20, (7R)-12-Hydroxy-1,11-dioxo-N-(2,4,6-trifluorobenzyl)-1,3,4,6,7,11-hexahydro-2,7-methanopyrido[1,2-d][1,4,7]oxadiazonine-10-carboxamide] | 37200 nM | 5.6 nM | 33.4 nM | 1.83 nM
15 | O=C(NCc1ccc(F)cc1F)c1cn2c(c(O)c1=O)C(=O)N1CCCCC[C@H]2C1 [Example 5-2, (8S)—N-(2,4-difluorobenzyl)-13-hydroxy-1,12-dioxo-1,3,4,5,6,7,8,12-octahydro-2,8-methanopyrido[1,2-a][1,4]diazecine-11-carboxamide] | 19500 nM | 2.9 nM | 142 nM | 0.72 nM
16 | C[C@H]1CC[C@H](C)N2C[C@H]1n1cc(C(=O)NCc3c(F)cc(F)cc3F)c(=O)c(O)c1C2=O [Example 186, (3S,6S,7S)-12-hydroxy-3,6-dimethyl-1,11-dioxo-N-(2,4,6-trifluorobenzyl)-1,4,5,6,7,11-hexahydro-3H-2,7-methanopyrido[1,2-a][1,4]diazonine-10-carboxamide] | 11400 nM | 0.612 nM | 60.2 nM | 0.306 nM
17 | O=C(NCc1ccc(F)cc1F)c1cn2c(c(O)c1=O)C(=O)N1CC[C@H](F)C[C@H]2C1 [Example 56-1, (5S, 7S)—N-(2,4-difluorobenzyl)-5-fluoro-12-hydroxy-1,11-dioxo-1,4,5,6,7,11-hexahydro-3H-2,7-methanopyrido[1,2-a][1,4]diazonine-10-carboxamide] | > 39400 nM | 3.99 nM | 1.91 nM | 0.967 nM
18 | C[C@@H]1C=C[C@H](CF)N2C[C@H]1n1cc(C(=O)NCc3ccc(F)cc3F)c(=O)c(O)c1C2=O [Example 192, (3R,6R,7S)—N-(2,4-difluorobenzyl)-3-(fluoromethyl)-12-hydroxy-6-methyl-1,11-dioxo-1,6,7,11-tetrahydro-3H-2,7-methanopyrido[1,2-a][1,4]diazonine-10-carboxamide] | 5570 nM | 0.913 nM | 6.57 nM | 0.252 nM
19 | O=C(NCc1ccc(F)cc1F)c1cn2c(c(O)c1=O)C(=O)N1CC=CC[C@H]2C1 [Example 47-2, (7S)—N-(2,4-difluorobenzyl)-12-hydroxy-1,11-dioxo-1,6,7,11-tetrahydro-3H-2,7-methanopyrido[1,2-a][1,4]diazonine-10-carboxamide] | 8720 nM | 1.16 nM | 1.01 nM | 0.247 nM
20 | C[C@]12Cc3cc(F)c(F)cc3CN(C1)C(=O)c1c(O)c(=O)c(C(=O)NCc3c(F)cc(F)cc3F)cn12 (single isomer, unassigned) [Example 191-2] | 11800 nM | 1.44 nM | 1.93 nM | 0.361 nM
21 | O=C(NCc1c(F)cc(F)cc1F)c1cn2c(c(O)c1=O)C(=O)N1C[C@@H](O)CC[C@H]2C1 (single isomer, unassigned) [Example 79-1] | > 50000 nM | 58.5 nM | 23.5 nM | 19.5 nM
22 | C[C@H]1CC[C@H]2CN(C(=O)c3c(O)c(=O)c(C(=O)NCc4c(F)cc(F)cc4F)cn32)[C@H]1C [Example 108-2, (3S,4S,7S)-12-hydroxy-3,4-dimethyl-1,11-dioxo-N-(2,4,6-trifluorobenzyl)-1,4,5,6,7,11-hexahydro-3H-2,7-methanopyrido[1,2-a][1,4]diazonine-10-carboxamide] | 11800 nM | 0.917 nM | 1.55 nM | 0.335 nM
23 | O=C(NCc1ccc(F)cc1F)c1cn2c(c(O)c1=O)C(=O)N1CCCC[C@]2(CF)C1 [Example 162-2, (7R)—N-(2,4-difluorobenzyl)-7-(fluoromethyl)-12-hydroxy-1,11-dioxo-1,4,5,6,7,11-hexahydro-3H-2,7-methanopyrido[1,2-a][1,4]diazonine-10-carboxamide] | 14400 nM | 2.58 nM | 15.3 nM | 0.118 nM
